Structures are written as SMILES.

The subject of series [1] is glioma cells U87-MG. Kind of series: Lactic acid released by glioma cells (glycolysis). In kind it is cell-based, human. To be noted: 1.6 mM.
Experimental: (§1) Human glioma cell strains (U87-MG, KNS-89, SHG-44) were respectively incubated in culture media containing 0.8 mM of trisodium fructose-1,6-bisphosphate salt, and 1.6 mM of trisodium fructose-1,6-bisphosphate salt, and 1.6 mM of 2-deoxyglucose, and the contents of lactic acid as the final glycolytic product released by the cells in the culture media were measured after 12 h, 24 h, 36 h, and 48 h. […] Human glioma cell strain (U87-MG) was incubated in the culture medium containing 0.8 mM of trisodium fructose-1,6-bisphosphate salt for 1 h, 3 h, 6 h, 12 h, 24 h, 36 h, and 48 h, and level changes of key metabolic enzymes in the glycolytic pathway of cells were measured by Western Blot at the respective time points.
Series [2] concerns glioma cells KNS-89. Put plainly: Lactic acid released by glioma cells (glycolysis). To be noted: KNS-89, 1.6 mM. The class given is cell-based, human.
Experimental: as §1
The subject of series [3] is glioma cells SHG-44. Put plainly: Lactic acid released by glioma cells (glycolysis). The class given is cell-based, human. To be noted: SHG-44, 1.6 mM.
Experimental: as §1
Series [4] has as its system Bel-7402. Kind of series: cells. To be noted: Homo sapiens, Bel-7402, 72 h.
Experimental: (§2) Human liver cancer cell strains Bel-7402 and huh-7, which had been incubated for 24 hours, were respectively incubated in a medium containing 1.6 mM or 0.8 mM of trisodium fructose-1,6-bisphosphate, a medium containing 0.2 mM of metformin or 25 μM of sitagliptin, and a medium containing 0.8 mM of trisodium fructose-1,6-bisphosphate and 0.2 mM of metformin/25 μM of sitagliptin for 72 h. A control group (Con) was not treated with the agent. Cell viability was determined by Sulforhodamine B (SRB) staining analysis method.
Series [5] concerns mouse liver cancer cells H22. Put plainly: Tumor growth of mouse liver cancer H22 model. The class given is in vivo, ICR mice. To be noted: FBP 500 mg/kg, i.g., 7 days; for Tumor weight: three times per day; for inhibition of tumor growth (inhibition ratio): H22, metformin 150 mg/kg, sitagliptin 20 mg/kg. The procedure: The treatment was performed three times per day, in which metformin or sitagliptin was administrated 0.5 h before trisodium fructose-1,6-bisphosphate. This is repeated for 7 days, and situations of the animals during the experiments were observed. The animals were sacrificed 24 hours after the last treatment, the tumor masses were taken out and weighed, and the average tumor weight in each group of animals was used as an efficacy index.

Series [6] has as its system SW620. Kind of series: cells. To be noted: Homo sapiens, SW-620, 72 h, read-out: cell viability (Con = 100).
Experimental: (§3) Human intestinal cancer cell strains SW620 and HCT-8, which had been incubated for 24 hours, were respectively incubated in a medium containing 0.8 mM of trisodium fructose-1,6-bisphosphate, a medium containing 0.2 mM of metformin/100 μM of sitagliptin, and a medium containing 0.8 mM of trisodium fructose-1,6-bisphosphate and 0.2 mM of metformin/100 μM of sitagliptin for 72 h. A control group (Con) was not treated with the agent. Cell viability was determined by Sulforhodamine B (SRB) staining analysis method.
The subject of series [7] is fructose-1,6-bisphosphatase 1. Kind of series: Kidney protein level of fructose-1,6-bisphosphatase 1 after 14 days treatment (Western Blot). The class given is in vivo. To be noted: SD rats, 14 days i.g.; FBP 500 mg/kg, metformin 150 mg/kg, sitagliptin 20 mg/kg; vs control group. The procedure:
180-200 g SD rats were divided into 4 groups: a saline control group, a trisodium fructose-1,6-bisphosphate hydrate group (500 mg/kg, i.g), a metformin group (150 mg/kg, i.g) or a sitagliptin group (20 mg/kg, i.g), and a trisodium fructose-1,6-bisphosphate and metformin or sitagliptin combination group, 5 rats in each group. All groups were intragastrically treated, metformin or sitagliptin was administrated 0.5 h before fructose-1,6-bisphosphate, and this was repeated in 14 consecutive days. At 3 hours after the last intragastric treatment with fructose-1,6-bisphosphate, rat blood was collected to detect the blood concentration of FBP, kidney tissue was taken and the protein level of fructose-1,6-bisphosphatase 1 was measured by Western Blot.
(A western blot detects proteins with antibodies after separation by electrophoresis.)

Series [8] has as its system Huh-7. Put plainly: Cell viability, Sulforhodamine B (SRB) staining. In kind it is cell-based, human. To be noted: Huh-7, 72 h, FBP 0.8 mM. Background: In SRB staining, fixed cells bind dye roughly in proportion to their protein.
Experimental: as §2
Series [9] concerns melanoma B16 cell. Kind of series: Cell viability, Sulforhodamine B (SRB) staining. To be noted: Mus musculus, B16, 72 h, read-out: cell viability inhibited.
Experimental: Mouse melanoma B16 cells, which had been incubated for 24 hours, were incubated in a medium containing 0.8 mM of trisodium fructose-1,6-bisphosphate, a medium containing 20 μM of sitagliptin, and a medium containing 0.8 mM of trisodium fructose-1,6-bisphosphate and 20 μM of sitagliptin for 72 h. A control group (Con) was not treated with the agent. Cell viability was determined by Sulforhodamine B (SRB) staining analysis method.
Series [10] can be described thus: Weight gain and fat accumulation caused by high-fat diet. In kind it is in vivo, ICR mice. To be noted: high-fat diet mice.
Experimental: 40 ICR male mice (17-19 g/per mouse) were divided into 2 groups. […] The animals of the normal group (Naive) were still fed with the basic feed, and the model animals were equally divided into 4 groups and were further fed with the high-fat diet. In addition, according to the amount of water the mice had consumed, a certain dose of the agent was dissolved in drinking water. The animals in the model group (Model) were fed with the purified water, the animals in the fructose-1,6-bisphosphate group were fed with water containing 0.18% of 8-molecule hydrate of sodium fructose-1,6-bisphosphate (equivalent to FBP 300 mg/kg), the animals in the sitagliptin group were fed with water containing 0.012% of sitagliptin phosphate salt (equivalent to STG 20 mg/kg), and the animals in the combination group were fed with water containing FBP 500 mg/kg+STG 20 mg/kg. The treatment lasted continuously for 6 weeks, the body weight, food intake and water intake were measured per week, the body weight and body length (CM) were measured on the last day of the last week, and a Lee's INDEX (Lee's INDEX=body weight (g)^(1/3) * 1000/body length (cm)) was calculated to evaluate the state of animal obesity. Then, the animals were sacrificed by cervical vertebra dislocation and the mice were dissected, the epididymal fat pad was taken and weighed, and a fat coefficient was calculated to further investigate the degree of obesity of the mice.
The subject of series [11] is HCT-8. Put plainly: Cell viability, Sulforhodamine B (SRB) staining. In kind it is cell-based, human. To be noted: HCT-8, 72 h, FBP 0.8 mM.
Experimental: as §3

For the molecule `O=CC[C@@H](O)[C@H](O)[C@H](O)CO` [2-DG, 2-deoxy-D-glucose], the “Relative levels of lactic acid (compared with the control group)” value in series [1] (12 h) came to 0.48 ± 0.16; in series [1] (24 h), 0.31 ± 0.07; in series [1] (36 h), 0.65 ± 0.10; in series [2] (12 h), 0.31 ± 0.09; in [2] (24 h) it was 0.27 ± 0.13; in series [2] (36 h), 0.31 ± 0.02. For the same molecule, the “Relative levels of lactic acid (compared with the control group)” value in series [3] (12 h) is given as 0.76 ± 0.15; in [3] (24 h) it was 0.62 ± 0.13; in series [3] (36 h) it was 0.57 ± 0.04.

Take `CN(C)C(=N)N=C(N)N` [Met, metformin]: the viability (usually a per cent measure of how many cells are alive, often set against a control) at 200 µM in series [4] (read-out: cell viability (Con = 100)) amounted to 91.7 ± 1.62%; in [6], 95.9 ± 7.54%. Further, the cytotoxicity at 200 µM in [4] (read-out: cell viability inhibited) is 5%. In [5] (H22, metformin experiment, Met 150 mg/kg, Con 1.66 ± 0.29), this molecule registered a Tumor weight of 1.46 ± 0.23 g. Moreover, the “inhibition of tumor growth (inhibition ratio)” value in series [5] is recorded as “no significant difference”. For the same molecule, the “protein level of fructose-1,6-bisphosphatase 1 in kidney tissue (Western Blot)” value in [7] was “not significantly changed”.

`N[C@@H](CC(=O)N1CCn2c(nnc2C(F)(F)F)C1)Cc1cc(F)c(F)cc1F` [STG, sitagliptin]: in [5] (H22, sitagliptin experiment, STG 20 mg/kg, Con 1.48 ± 0.34), the Tumor weight came out at 0.78 ± 0.31 g. Moreover, the “inhibition of tumor growth (inhibition ratio)” value in series [5] turned out to be 46.12%. Besides, the viability at 25 µM in series [8] (Homo sapiens, STG 25 μM, read-out: cell viability (Con = 100)) was found to be 92.1 ± 1.35%. Moreover, the cell viability inhibited entry in series [8] (sitagliptin 25 μM) was “no significant difference”; in series [11] (sitagliptin 100 μM), “did not affect”. In series [9], the cytotoxicity at 20 µM is 16%. Further, in [7], the “protein level of fructose-1,6-bisphosphatase 1 in kidney tissue (Western Blot)” value is “not significantly changed”. Moreover, the “fat coefficient (epididymal fat pad)” value in series [10] (6 weeks, model group 3.96±0.83%, normal group 1.58±0.68%) was found to be 3.28±1.14%. In addition, the “Lee's INDEX” value in series [10] (6 weeks, model group 353.28±9.64, normal group 337.05±9.96) was determined as 346.34±9.36. Further, the “body weight after 6 weeks” value in series [10] (agents in drinking water, FBP 300 mg/kg, STG 20 mg/kg, combination FBP 500 mg/kg+STG 20 mg/kg, model group 47.89±3.34) is 46.78 ± 6.1 g. In [11] (Homo sapiens, STG 100 μM, read-out: cell viability (Con = 100)), the viability at 100 µM worked out at 95.4 ± 3.79%.

Values taken from patent publication US20200246364A1, “MEDICAL APPLICATION OF COMPOSITION OF FRUCTOSE-1,6-BISPHOSPHATE AND BLOOD CONCENTRATION STABILIZER THEREOF” (ZHEJIANG UNIVERSITY, priority 2017, published 2020).
